According to US9034886B2, “4-aminoquinazoline derivatives and uses thereof” (Shanghai Institute of Pharmaceutical Industry, priority 2011, dated 2015):

Experiments:
[1] = Maximum tolerance dose through intragastrical administration; type: in vivo; settings: mice, administrated intragastrically
Summary of the method: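 ICR mice (8˜20 g, both sexes, 10 per group) fasted 6 h, then dosed once intragastrically at 0.3 ml/10 g. Physical signs and deaths recorded at 1, 2 and 4 h, then daily with body weight over 14 days; dead animals necropsied with pathology on suspicious organs.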

HDAC1 = HDAC1 (Homo sapiens (Human), UniProt Q13547); experiment: In vitro inhibition of subtype HDAC1 (HDAC1 Inhibitor Drug Screening Kit, Biovision); type: biochemical; settings: for inhibition at 1 µM / inhibition at 10 µM: read-out: % Inhibition towards HDAC1; for inhibitory activity against HDAC1 compared with MS-275: both concentrations 10 μM and 1 μM
Description: The in vitro inhibitory activities of the compounds towards the subtype HDAC1 were tested according to the instructions in the HDAC1 Inhibitor Drug Screening Kit (Biovision).
(1) The compounds to be tested were each individually prepared as 10 μM and 1 μM solutions and their inhibitory activities at these concentrations were tested.
Each dilution sample was placed in two wells and the enzyme inhibition IC50 of the compound was tested.

[2] = test system: Hep3B2.1-7 human liver cancer cells; experiment: In vitro anti-proliferative effect, CCK-8 method, Hep3B; type: cell-based; settings: Homo sapiens, Hep3B cell strain, CCK-8 method; for inhibition at 10 µM: compound at 10 μM; for inhibition at 100 µM: compound at 100 μM
Summary of the method: (§1)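 Cells exposed to compound at 10 μM or 100 μM; CCK-8 assay then used to derive inhibition percentages.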

[3] = test system: K562 human chronic myelogenous leukemia cells; experiment: In vitro anti-proliferative effect, CCK-8 method, K562; type: cell-based; settings: Homo sapiens, K562
Summary of the method: (§2)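 K562 and Hut78 cells exposed to compounds at 100 μM and 10 μM. Percent inhibition of proliferation determined by CCK-8 read-out.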

[4] = test system: PC-3 human prostate cancer; experiment: In vitro anti-proliferative effect, CCK-8 method, PC-3; type: cell-based; settings: Homo sapiens, PC-3 cell strain, CCK-8 method; for inhibition at 10 µM: compound at 10 μM; for inhibition at 100 µM: compound at 100 μM
Summary of the method: as §1

[5] = test system: Jurkat E6-1 human T-cell lymphoma; experiment: In vitro anti-proliferative effect, CCK-8 method, Jurkat E6-1; type: cell-based; settings: Homo sapiens, Jurkat E6.1
Summary of the method: as §1

[6] = test system: MDA-MB-435s human breast cancer cells; experiment: In vitro anti-proliferative effect, CCK-8 method, MDA-MB-435s; type: cell-based; settings: Homo sapiens, MDA-MB-435S
Summary of the method: as §1

[7] = test system: Hut78 T lymphocytic leukemia cells; experiment: In vitro anti-proliferative effect, CCK-8 method, Hut78; type: cell-based; settings: Homo sapiens, HuT78, read-out: Hut-78 (inhibition %)
Summary of the method: as §2

[8] = test system: PANC-1 human pancreatic cancer cells; experiment: In vitro anti-proliferative effect, CCK-8 method, PANC-1; type: cell-based; settings: Homo sapiens, PANC-1
Summary of the method: as §1

[9] = test system: A549 human lung cancer cells; experiment: In vitro anti-proliferative effect, CCK-8 method, A549; type: cell-based; settings: Homo sapiens, A549
Summary of the method: as §1

HDACs = experiment: In vitro inhibition of HDACs (HDAC Inhibitor Drug Screening Kit, Biovision K340-100); type: biochemical
Description: The in vitro inhibitory activities of the compounds towards HDACs were tested according to the instructions in the HDAC Inhibitor Drug Screening Kit (Biovision/Catalog #K340-100).
(1) The compounds to be tested were each individually prepared as 2 mM, 200 μM and 40 μM solutions and their inhibitory activities at these concentrations were tested.

[10] = test system: Colo320 human colorectal cancer cell lines; experiment: In vitro anti-proliferative effect, CCK-8 method, Colo320; type: cell-based; settings: Homo sapiens, COLO 320, Colo320 cell strain, CCK-8 method; for inhibition at 10 µM: compound at 10 μM; for inhibition at 100 µM: compound at 100 μM
Summary of the method: as §1

Sequence of HDAC1 (Q13547 whole entry): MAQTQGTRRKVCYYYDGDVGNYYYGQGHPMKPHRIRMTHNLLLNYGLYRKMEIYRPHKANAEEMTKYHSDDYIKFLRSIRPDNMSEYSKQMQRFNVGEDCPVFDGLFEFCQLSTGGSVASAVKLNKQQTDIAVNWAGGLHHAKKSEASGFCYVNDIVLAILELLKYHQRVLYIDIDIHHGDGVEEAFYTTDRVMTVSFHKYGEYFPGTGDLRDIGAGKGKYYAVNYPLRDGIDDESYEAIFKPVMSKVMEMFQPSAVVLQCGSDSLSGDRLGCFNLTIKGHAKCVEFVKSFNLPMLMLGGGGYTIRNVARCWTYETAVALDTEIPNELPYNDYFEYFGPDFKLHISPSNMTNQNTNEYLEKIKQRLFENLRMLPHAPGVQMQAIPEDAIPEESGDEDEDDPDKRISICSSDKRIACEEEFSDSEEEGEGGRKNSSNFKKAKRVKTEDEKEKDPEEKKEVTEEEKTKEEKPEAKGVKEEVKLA

COc1cc2ncnc(Nc3ccc(C(=O)Nc4cc(F)ccc4N)cc3)c2cc1OCCCN1CCOCC1 [Compound V-18, N-(2-amino-5-fluorophenyl)-4-[7-methoxy-6-(3-morpholinylpropoxy)quinazoline-4-amino]benzamide]
maximum tolerance dose [1]: over 2000 mg/kg
IC50 (HDAC1): 330 nM
inhibition at 1 µM (HDAC1): 59.8%
inhibition at 10 µM (HDAC1): 80.8%
inhibitory activity against HDAC1 compared with MS-275 (HDAC1): superior to that of MS-275
inhibition at 10 µM [2]: 13.8%
inhibition at 100 µM [2]: 75.1%
inhibition at 10 µM [3]: 58.5%
inhibition at 100 µM [3]: 87.5%
inhibition at 10 µM [4]: 45.2%
inhibition at 100 µM [4]: 72.2%
inhibition at 10 µM [5]: 76.6%
inhibition at 100 µM [5]: 95.7%
inhibition at 10 µM [6]: 22.7%
inhibition at 100 µM [6]: 81.4%
inhibition at 10 µM [7]: 39.9%
inhibition at 100 µM [7]: 82.3%
inhibition at 10 µM [8]: 0.9%
inhibition at 100 µM [8]: 23.9%
inhibition at 10 µM [9]: 9.5%
inhibition at 100 µM [9]: 79.1%
IC50 (HDACs): 1020 nM
Inhibition percentage (%) towards HDACs (HDACs; 40 μM): 30.4%
Inhibition percentage (%) towards HDACs (HDACs; 200 μM): 56.8%
Inhibition percentage (%) towards HDACs (HDACs; 2 mM): 66.0%
inhibition at 10 µM [10]: 7.7%
inhibition at 100 µM [10]: 56.3%

CS(=O)(=O)CCNCc1ccc(-c2ccc3ncnc(Nc4ccc(C(=O)Nc5cc(F)ccc5N)cc4)c3c2)o1 [Compound V-20, N-(2-amino-5-fluorophenyl)-4-[6-(5-((2-(methylsulfonyl)ethylamino)methyl)furyl)quinazoline-4-amino]benzamide]
maximum tolerance dose [1]: over 5000 mg/kg
inhibition at 1 µM (HDAC1): 53.5%
inhibition at 10 µM (HDAC1): 77.4%
inhibitory activity against HDAC1 compared with MS-275 (HDAC1): superior to that of MS-275
inhibition at 10 µM [2]: 23.5%
inhibition at 100 µM [2]: 60%
inhibition at 10 µM [3]: 64.3%
inhibition at 100 µM [3]: 92.9%
inhibition at 10 µM [4]: 48.1%
inhibition at 100 µM [4]: 75.5%
inhibition at 10 µM [5]: 84.8%
inhibition at 100 µM [5]: 89.4%
inhibition at 10 µM [6]: 17%
inhibition at 100 µM [6]: 57.8%
inhibition at 10 µM [7]: 44.4%
inhibition at 100 µM [7]: 85.7%
inhibition at 10 µM [8]: -1.7%
inhibition at 100 µM [8]: 52%
inhibition at 10 µM [9]: 0%
inhibition at 100 µM [9]: 41.3%
IC50 (HDACs): 1220 nM
Inhibition percentage (%) towards HDACs (HDACs; 40 μM): 28.2%
Inhibition percentage (%) towards HDACs (HDACs; 200 μM): 56.9%
Inhibition percentage (%) towards HDACs (HDACs; 2 mM): 67.5%
inhibition at 10 µM [10]: 6.5%
inhibition at 100 µM [10]: 58.8%

COC(=O)Cc1ccc2ncnc(Nc3ccc(C(=O)Nc4ccccc4N)cc3)c2c1 [Compound V-22, N-(2-aminophenyl)-4-(6-methoxycarbonylmethylquinazoline-4-amino)benzamide]
maximum tolerance dose [1]: over 2000 mg/kg
inhibition at 1 µM (HDAC1): 23.1%
inhibition at 10 µM (HDAC1): 63%
inhibition at 10 µM [2]: 38.3%
inhibition at 100 µM [2]: 69.2%
inhibition at 10 µM [3]: 60.9%
inhibition at 100 µM [3]: 83.4%
inhibition at 10 µM [4]: 44.6%
inhibition at 100 µM [4]: 69%
inhibition at 10 µM [5]: 83.1%
inhibition at 100 µM [5]: 88.2%
inhibition at 10 µM [6]: 18%
inhibition at 100 µM [6]: 81.4%
inhibition at 10 µM [7]: 42.3%
inhibition at 100 µM [7]: 91.8%
inhibition at 10 µM [8]: 12.3%
inhibition at 100 µM [8]: 39.4%
inhibition at 10 µM [9]: 21.8%
inhibition at 100 µM [9]: 69.9%
Inhibition percentage (%) towards HDACs (HDACs; 40 μM): 19.9%
Inhibition percentage (%) towards HDACs (HDACs; 200 μM): 47.5%
Inhibition percentage (%) towards HDACs (HDACs; 2 mM): 84.2%
inhibition at 10 µM [10]: 5.4%
inhibition at 100 µM [10]: 40.8%

COc1cc2ncnc(Nc3ccc(C(=O)Nc4cc(-c5ccccc5)ccc4N)cc3)c2cc1OC [Compound V-24, N-[2-amino-5-(phenyl)phenyl]-4-(6,7-dimethoxyquinazoline-4-amino)benzamide]
maximum tolerance dose [1]: over 2000 mg/kg
inhibition at 1 µM (HDAC1): 51%
inhibition at 10 µM (HDAC1): 73.3%
inhibitory activity against HDAC1 compared with MS-275 (HDAC1): superior to that of MS-275
inhibition at 10 µM [2]: 14.3%
inhibition at 100 µM [2]: 69.5%
inhibition at 10 µM [3]: -1.7%
inhibition at 100 µM [3]: 75.3%
inhibition at 10 µM [4]: 13.1%
inhibition at 100 µM [4]: 63.7%
inhibition at 10 µM [5]: 30.7%
inhibition at 100 µM [5]: 91.4%
inhibition at 10 µM [6]: -10.8%
inhibition at 100 µM [6]: 24.5%
inhibition at 10 µM [7]: 15.5%
inhibition at 100 µM [7]: 72.9%
inhibition at 10 µM [8]: 17.5%
inhibition at 100 µM [8]: 22.1%
inhibition at 10 µM [9]: 7.3%
inhibition at 100 µM [9]: 20.8%
Inhibition percentage (%) towards HDACs (HDACs; 40 μM): 24.2%
Inhibition percentage (%) towards HDACs (HDACs; 200 μM): 55.2%
Inhibition percentage (%) towards HDACs (HDACs; 2 mM): 76.1%
inhibition at 10 µM [10]: -1.7%
inhibition at 100 µM [10]: 16.5%

COc1cc2ncnc(Nc3ccc(C(=O)Nc4cc(-c5ccco5)ccc4N)cc3)c2cc1OC [Compound V-25, N-[2-amino-5-(2-furyl)phenyl]-4-(6,7-dimethoxyquinazoline-4-amino)benzamide]
maximum tolerance dose [1]: over 5000 mg/kg
inhibition at 1 µM (HDAC1): 24.2%
inhibition at 10 µM (HDAC1): 53.8%
inhibition at 10 µM [2]: 11.3%
inhibition at 100 µM [2]: 40.6%
inhibition at 10 µM [3]: 34.1%
inhibition at 100 µM [3]: 64.8%
inhibition at 10 µM [4]: -9.4%
inhibition at 100 µM [4]: 22.1%
inhibition at 10 µM [5]: 12.5%
inhibition at 100 µM [5]: 83.3%
inhibition at 10 µM [6]: 30.8%
inhibition at 100 µM [6]: 61.2%
inhibition at 10 µM [7]: 18.1%
inhibition at 100 µM [7]: 60%
inhibition at 10 µM [8]: 20.8%
inhibition at 100 µM [8]: 39.5%
inhibition at 10 µM [9]: 2.4%
inhibition at 100 µM [9]: 12%
Inhibition percentage (%) towards HDACs (HDACs; 40 μM): 20.5%
Inhibition percentage (%) towards HDACs (HDACs; 200 μM): 55.2%
Inhibition percentage (%) towards HDACs (HDACs; 2 mM): 72.8%
inhibition at 10 µM [10]: 7.9%
inhibition at 100 µM [10]: 14.1%
